Experimental data as given in patent US8846981B2, “1,1-di[(alkylphenoxy)ethoxy]cyclohexanes” (Southern Lithoplate, Inc., priority 2012, dated 2014).

Assays:
[1] = Solubility of the ketals in water / deionized water; assay type: physicochemical; conditions: for Solubility in water: product or starting alcohol as described in the example
Description: A typical aqueous alkaline developer for a positive-working, lithographic printing plate contains roughly 5% by weight of NaOH or KOH. A 1.0 M NaOH solution is equivalent to 4% by weight of NaOH.

[2] = Solubility in a 1.0 M NaOH water solution; assay type: physicochemical; conditions: 1.0 M NaOH water solution (equivalent to 4% by weight NaOH)
Description: The physical appearance of the ketals from Examples 1-4 and from Comparative Examples A-B are given in the following table, along with their solubility in deionized water and in a 1.0 M NaOH water solution. A typical aqueous alkaline developer for a positive-working, lithographic printing plate contains roughly 5% by weight of NaOH or KOH. A 1.0 M NaOH solution is equivalent to 4% by weight of NaOH.

[3] = Acid decomposition of the ketal back to starting alcohol and cyclohexanone; assay type: physicochemical; conditions: addition of an acid, such as p-toluenesulfonic acid
Experimental: A stirred mixture of 72 g (0.5 mol) of 1,1-dimethoxycyclohexane, 250 g (1.0 mol) of 2-[4-(1,1,3,3-tetramethylbutyl)phenoxy]ethanol, 0.080 g of p-toluenesulfonic acid, and 300 ml of toluene was reacted in a flask with a thermometer and fractional distillation column at 120° C. for 8 hours with continuous stirring. The low boiling methanol that was produced during the reaction was removed. The reaction mixture was cooled to room temperature and washed with a small amount of an aqueous 1.0 M sodium hydroxide solution until the mixture was neutralized. The reaction mixture was then washed with a saturated sodium chloride solution to remove any remaining water in the toluene. Next the reaction mixture was dried over anhydrous potassium carbonate to remove any minor amounts of water and to make sure all of the p-toluenesulfonic acid was removed. The resulting mixture was filtered. The filtrate was evaporated under reduced pressure at 60° C. until all of the toluene was removed. […] The starting surfactant is water-insoluble. This ketal with a theoretical molecular weight of 580 has the structural formula shown below.

[4] = related art; cited from earlier work
[5] = related art; cited from earlier work; remark: listed apart in the source

For `CC(C)(C)CC(C)(C)c1ccc(OCCO)cc1` [2-[4-(1,1,3,3-tetramethylbutyl)phenoxy]ethanol], the “Solubility in water” value [1] was “water-insoluble”.
With `CC(C)(C)c1ccc(OCCO)cc1` [2-[4-(1,1-dimethylethyl)phenoxy]ethanol] the “Solubility in water” value [1] was “water-insoluble”.
With `OCCOc1ccccc1` [2-phenoxyethanol] the “Solubility in water” value [1] was “low water solubility”.
For `c1ccc(OCCOC2(OCCOc3ccccc3)CCCCC2)cc1` [A, 1,1-di(2-phenoxyethoxy)cyclohexane], the “Solubility in 1.0M NaOH” value [2] is listed as “insoluble”, the Decomposition by acid [3] is listed as “can be converted back to the starting alcohol and cyclohexanone” and the “Decomposition by strong acids (background statement)” value [4] is listed as “decompose this ketal into cyclohexanone and 2-phenoxyethanol”. The “Solubility in water (background statement, words)” value [5] was “water insoluble”, the “Solubility in DI Water” value ([1]; deionized water) was “insoluble” and the “Solubility in water” value [1] was “water-insoluble”.
